Tests used:
SpADH2 = assay: Preliminary evaluation of NCB usage in oxidation of syringyl alcohol (HPLC); assay type: biochemical, Sphingobium sp. SYK-6; conditions: preliminary assay: 1a 1 mM, NCB 10 mM, pH 7.0, 30℃, 0.1 mg/mL enzyme, 1 h
Protocol: Sphingobium sp. SYK-6 belongs to genus Sphingomonas, and a search in UniProtKB identified 19 ADHs from this strain, including 5 PQQ-dependent and the remaining NAD^+/NADP^+-dependent enzymes. Two sequences annotated as aryl-alcohol dehydrogenases (SLG_34580 and SLG_24930) (Table. S1) were selected for heterologous expression (Fig. S1) and named SpADH1 and SpADH2, respectively. Their ability to utilize NCBs was assessed by oxidation of syringyl alcohol (1a) to produce syringaldehyde (1b) (Fig. 1a).
Fig. 1 (a) Reaction scheme of SpADH2-catalyzed oxidation of syringyl alcohol. (b) Specific activity of SpADH2 toward four NCBs. The evaluation of NCBs usage by SpADH2 was carried out under following conditions: 50 mM PBS buffer (pH 7.0) and 30℃, with 1a (1 mM) as substrate and 4 typical NCBs (10 mM) as cofactor. A total of 0.1 mg/mL enzyme was added to a 200 µL reaction mixture, and was analyzed by HPLC after 1 h reaction
Reaction samples were analyzed using Agilent 1260 Infinity II LC system under reversed phase condition. Column: Agilent C18 column. Analytical conditions for 1a and 1b: mobile phase: 50% water: 50% acetonitrile. The retention time for standard product 1b was 3.27 min, under flow rate of 1 mL·min^− 1and temperature of 30°C (Fig. S4).

SpADH2 WT = SpADH2 WT (Sphingobium sp. SYK-6, UniProt G2IIZ8); assay: Substrate kinetic assay, WT; assay type: biochemical
SpADH2 WT, sequence (G2IIZ8 1-372): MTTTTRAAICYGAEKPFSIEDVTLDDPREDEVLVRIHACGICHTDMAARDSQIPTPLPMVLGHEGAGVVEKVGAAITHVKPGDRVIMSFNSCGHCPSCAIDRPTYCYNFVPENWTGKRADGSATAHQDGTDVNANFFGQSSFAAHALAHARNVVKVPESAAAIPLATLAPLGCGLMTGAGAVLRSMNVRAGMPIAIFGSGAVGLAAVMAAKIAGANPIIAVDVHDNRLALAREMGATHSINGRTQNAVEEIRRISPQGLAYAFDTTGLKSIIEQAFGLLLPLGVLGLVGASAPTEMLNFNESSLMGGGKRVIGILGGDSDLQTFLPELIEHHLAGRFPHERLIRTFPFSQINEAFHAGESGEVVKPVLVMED
Protocol: (§1) Specific activity of SpADH2 in substrate spectrum study was measured spectrophotometrically. PBS (pH 7.5) buffer was pre-heated at 30°C for 15 min. For NAD^+, 0.05 µg SpADH2 was added to the PBS buffer (100 µL), and a final concentration of 2 mM NAD^+ was added. For tsNCBs cofactor p-BANA^+, 5 µg SpADH2 and a final concentration of 7.5 mM p-BANA^+ was added. The mixture was carried out in a 96-well microplate, and a final concentration of 5 mM substrate was added to start the reaction. The microplate was incubated in 30°C for 1 h. Florescent probes (2-[2-(1,4-dihydro-1-methyl-3-quinolinyl)ethenyl]-1,3,3-trimethyl-3H-indolium) in a final concentration of 0.2 mM (100 µL) was added (Scheme S1), and the microplate was placed in a microplate reader immediately for measurement under 537 nm (Fomin et al. [2016]).
(§2) Kinetic analysis of SpADH2 and its variants were carried out following Michaelis-Menten equation or Michaelis-Menten excess substrate inhibition equation. For of the substrate kinetic assays, concentrations of cofactors were fixed at 5 mM for NAD^+ and 7.5 mM for p-BANA^+. For cofactor kinetic assays, the concentration of 1a was fixed at 5 mM.
(§3) Specific activity was determined spectrophotometrically as above except that gradient 1a (0−20 mM) or cofactor (0−35 mM) concentrations were applied.
(§4) Cofactor specificity ratio (CSR) represents the ratio of catalytic efficiency of p-BANA^+ to NAD^+ for each enzyme, and relative specificity (RS) stands for the CSR ratio of variants to WT (King et al. [2020]).

SpADH2 variant A290I = assay: Substrate kinetic assay, A290I; assay type: biochemical, Sphingobium sp. SYK-6
Protocol: as §1, §2, §3, §4

SpADH2 variant H43L = assay: Cofactor kinetic assay, H43L; assay type: biochemical, Sphingobium sp. SYK-6
Protocol: as §1, §2, §3, §4

SpADH2 variant A290V = assay: Activity of variant in oxidation of syringyl alcohol with p-BANA^+ (Fig. 5), A290V; assay type: biochemical, Sphingobium sp. SYK-6; conditions: cofactor p-BANA^+, substrate syringyl alcohol
Protocol: (§5) In the first round of screening, saturation mutagenesis was constructed for six positions (W114, T177, G172, G316, A47, and R227). […] Therefore, in the second round of mutagenesis, six additional sites within the 5 Å range of the cofactor ribose (H43, V202, T265, V288, G289, and A290) were selected for saturation mutagenesis screening (Fig. 6c and Fig. S6). Three beneficial mutations were identified. […] Subsequently, combinatorial mutagenesis was performed, resulting in 11 double variants and 3 triple variants.
(§6) Fig. 5 Relative activity of SpADH2 and its variants in oxidation of syringyl alcohol when utilizing p-BANA^+ as cofactor
(§7) In preliminary screening by spectrophotometric analysis, PBS (pH 7.5) buffer (50 µL) in a 96-well plate was pre-warmed at 30°C for 15 min, and a final concentration of 5 mM p-BANA^+ and 1 mM substrate syringyl alcohol were added, and 50 µL of crude enzyme were add to each well to start the reaction, with WT as control. The reaction mixture was incubated at 30°C for 1 h, followed by addition of fluorescent probes in a final concentration of 0.2 mM, and was subjected to determination under 537 nm as described above.

[1] = tested on: SpADH2 variant H43L/A290I; assay: Activity of variant in oxidation of syringyl alcohol with p-BANA^+ (Fig. 5), H43L/A290I; assay type: biochemical, Sphingobium sp. SYK-6; conditions: cofactor p-BANA^+
Protocol: as §5, §6, §7

[2] = 1a varied, cofactor (= label) fixed: 5 mM NAD^+ or 7.5 mM p-BANA^+

With `NC(=O)c1ccc[n+](Cc2ccc(C(=O)O)cc2)c1` [p-BANA^+, para-3-carbamoyl-1-(4-carboxybenzyl)pyridin-1-ium] the “catalytic activity of SpADH2 with the NCB as cofactor” value (SpADH2) was 1.62 U/g, the kcat (SpADH2 WT; [2]) was 1.1 ± 0.3 min^− 1 and the “Cofactor specificity ratio (catalytic efficiency of p-BANA^+ to NAD^+)” value (SpADH2 WT; substrate kinetics) was 1.52×10^-5. For the same compound, the kcat (SpADH2 variant A290I; [2]) was 11 ± 4.1 min^− 1, the “Cofactor specificity ratio (catalytic efficiency of p-BANA^+ to NAD^+)” value (SpADH2 variant A290I; substrate kinetics) was 2.95×10^-4 and the “Relative specificity (CSR ratio of variant to WT)” value (SpADH2 variant A290I; substrate kinetics) was 19.4. For the same compound, the “fold increase in kcat vs WT” value (SpADH2 variant A290I; substrate kinetics, cofactor = label) was 10 fold, the kcat (SpADH2 variant H43L; cofactor (= label) varied, 1a fixed at 5 mM) was 5.1 ± 2.0 min^− 1 and the Km (SpADH2 variant H43L; cofactor (= label) varied, 1a fixed at 5 mM, pH 7.5, 30°C) was 28 ± 13 mM. For the same compound, the Ki (SpADH2 variant H43L; cofactor (= label) varied, 1a fixed at 5 mM, read-out: Ki (cofactor inhibition)) was 5.4 ± 2.5 mM, the “Cofactor specificity ratio (catalytic efficiency of p-BANA^+ to NAD^+)” value (SpADH2 variant H43L; cofactor kinetics) was 3.08×10^-4 and the “Relative specificity (CSR ratio of variant to WT)” value (SpADH2 variant H43L; cofactor kinetics) was 8.08. The “fold increase in activity vs WT” value (SpADH2 variant A290V) was 3 fold, the “fold higher activity than WT” value ([1]; substrate syringyl alcohol) was 7 fold and the activity ([1]; substrate syringyl alcohol (Fig. 5)) was 70 U/g.

From publication PMC12052742, “Engineering a newly identified alcohol dehydrogenase from Sphingobium Sp. for efficient utilization of nicotinamide cofactors biomimetics” (Bioresources and Bioprocessing, 2025)
